Measurements published in publication PMC6458156, “Improved predictions of time-dependent drug-drug interactions by determination of cytosolic drug concentrations” (Scientific Reports, 2019).
Like-named read-outs stand apart in the source and are kept apart here.

Columns and labels:
human hepatocytes [1] = test: Cytosolic drug accumulation ratio (Kpcyto) and cytosolic bioavailability (Fcyto) in human hepatocytes with chloroquine; type: in vitro ADME; settings: for Kpcyto: cellular drug accumulation ratio in the presence of chloroquine (100 µM, 45 min), 0.5 µM drug; for Fcyto: cytosolic bioavailability = fu,cell × Kpcyto; for Fcyto / Fic/Fcyto: human hepatocytes; for Fic/Fcyto: ratio of intracellular to cytosolic bioavailability; for Kp compared with Kpcyto: absence vs presence of chloroquine, p ≤ 0.05 in Student’s t-test where called significant
[2] = cited from earlier work; for ka: absorption rate constant, 35-40 (verapamil); for ka / Fa: ref 5,17 (crizotinib), 19-21 (erythromycin), 22-25 (imatinib), 20,32,33 (roxithromycin), 4,34 (telithromycin); for Cave,ss: average plasma concentration at steady-state; for Fa: fraction absorbed, 6,18 (diltiazem), 26-28 (nefazodone), 29,30 (nilotinib), 29,31 (pazopanib); for Cmax,ss: maximum plasma concentration at steady-state
[3] = Intracellular fraction of unbound drug (fu,cell), dialysis of human hepatocyte homogenate; type: in vitro ADME; settings: homogenate of cryopreserved human hepatocytes, geometrical mean ± SD of triplicates
[4] = Intracellular drug accumulation ratio (Kp) and intracellular bioavailability (Fic) in cryopreserved human hepatocytes; type: in vitro ADME; settings: human, cryopreserved human hepatocytes in suspension; cellular drug accumulation ratio; 0.5 µM drug; no chloroquine; geometrical mean ± SD of triplicates
human hepatocytes [5] = test: as above; type: in vitro ADME; settings: intracellular bioavailability = fu,cell × Kp; human hepatocytes
[6] = Non-specific binding of drugs in human liver microsomes (fu,mic), rapid equilibrium dialysis; type: in vitro ADME; settings: unbound drug fraction in the microsomal mixture, inhibitor 1 µM, 37 °C
CYP3A4 [7] = settings: midazolam; cited from earlier work
CYP3A [8] = biological target: T1, CYP3A (Homo sapiens, UniProt P08684); test: in vitro; settings: microsomes, pH 7.4
MATE2-K = settings: read-out: IC50 (MATE2-K); ref DIDB; cited from earlier work
OATP1A2 = settings: read-out: IC50 (OATP1A2); ref DIDB; cited from earlier work
P-gp = settings: read-out: Ki (P-gp); ref DIDB; cited from earlier work
CYP2D6 = system: CYP2D6; parameters: method as in earlier work; settings: in HLM; ref DIDB; cited from earlier work
MATE1 = settings: read-out: IC50 (MATE1); ref DIDB; cited from earlier work
CYP3A4 [9] = system: CYP3A4; parameters: method as in earlier work; settings: ref DIDB; cited from earlier work
OCT1 = settings: read-out: IC50 (OCT1); ref DIDB; cited from earlier work
OCT2 = settings: read-out: IC50 (OCT2); ref DIDB; cited from earlier work
CYP3A [10] = biological target: T1, CYP3A; test: in vitro
CYP3A [11] = biological target: T1, CYP3A; settings: probe drugs midazolam and simvastatin, in vivo; ref University of Washington Drug Interaction Database; cited from earlier work
transporters = system: transporters; parameters: method as in earlier work; settings: cells wrapped over several lines are given as printed fragments; ref DIDB; cited from earlier work
[12] = blood-to-plasma ratio; Predicted within/obtained from Simcyp; ref Simcyp (Simcyp Limited, UK); cited from earlier work
[13] = HLM 0.1 mg/ml, read-out: fu,mic at 0.1 mg/ml
[14] = HLM 0.5 mg/ml, read-out: fu,mic at 0.5 mg/ml
[15] = pH 7.4, KI, inactivation constant, HLM 0.5 mg/ml preincubation 0-30 min, midazolam 20 µM, mean ± SD of triplicates
[16] = pH 7.4, KI,u, calculated as fu,mic at 0.5 mg/ml × KI

T1 sequence (P08684 2-503): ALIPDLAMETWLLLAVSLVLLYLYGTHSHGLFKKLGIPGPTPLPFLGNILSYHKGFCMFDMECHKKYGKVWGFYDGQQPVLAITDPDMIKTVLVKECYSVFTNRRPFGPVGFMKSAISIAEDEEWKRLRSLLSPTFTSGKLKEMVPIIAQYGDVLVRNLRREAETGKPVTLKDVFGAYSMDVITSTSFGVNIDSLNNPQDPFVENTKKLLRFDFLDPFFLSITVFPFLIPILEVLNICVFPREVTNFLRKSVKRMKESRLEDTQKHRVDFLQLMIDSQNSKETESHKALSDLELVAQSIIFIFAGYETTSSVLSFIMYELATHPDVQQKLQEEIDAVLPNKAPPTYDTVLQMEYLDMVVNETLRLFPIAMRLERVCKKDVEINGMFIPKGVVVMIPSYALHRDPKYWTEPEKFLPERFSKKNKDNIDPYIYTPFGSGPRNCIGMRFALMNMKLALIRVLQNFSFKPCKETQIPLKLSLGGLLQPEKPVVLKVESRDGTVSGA

| SMILES | Kpcyto (human hepatocytes [1]) | Fcyto (human hepatocytes [1]) | ka [2] | Fa [2] | fraction unbound at 4 h [3] | Kp at 0.5 µM [4] | Fic (human hepatocytes [5]) | fraction unbound at 4 h, 1 µM [6, 13] | fraction unbound at 4 h, 1 µM [6, 14] | IC50 at 5 min (CYP3A [8]) | Ki at 5 min (CYP3A [8]) | KI (inactivation) (CYP3A [10]; [15]) | KI (inactivation) (CYP3A [10]; [16]) | class of CYP3A inhibitor by increase in AUC of the probe drug (CYP3A [11]) | also measured |
| --- | --- | --- | --- | --- | --- | --- | --- | --- | --- | --- | --- | --- | --- | --- | --- |
| CC[C@H]1OC(=O)[C@H](C)[C@@H](O[C@H]2C[C@@](C)(OC)[C@@H](O)[C@H](C)O2)[C@H](C)[C@@H](O[C@@H]2O[C@H](C)C[C@H](N(C)C)[C@H]2O)[C@](C)(O)C[C@@H](C)C(=O)[C@H](C)[C@@H](O)[C@]1(C)O [Erythromycin] | 1.2 ± 4.33 | 0.052 ± 0.192 | 0.6 h⁻¹ | 0.65 | 0.0444 ± 0.0013 | 1.5 ± 2.4 | 0.066 ± 0.104 | 0.64 | 0.586 | – | – | – | – | – | Cave,ss ([2]; 500 mg tid): 361 ng/mL; Cmax,ss ([2]; 500 mg tid): 821 ng/mL |
| Cc1ncc2n1-c1ccc(Cl)cc1C(c1ccccc1F)=NC2 [midazolam, Midazolam] | – | – | – | – | – | – | – | – | – | – | – | – | – | – | fraction metabolized by CYP3A4 (fm) (CYP3A4 [7]): 0.94; fraction of drug escaping CYP3A4-mediated gut metabolism (FG) (CYP3A4 [7]): 0.51 |
| CCc1nn(CCCN2CCN(c3cccc(Cl)c3)CC2)c(=O)n1CCOc1ccccc1 [Nefazodone] | 11 ± 1.6 | 0.021 ± 0.003 | – | 1.00 | 0.0019 ± 0.0001 | 8.1 ± 1.3 | 0.015 ± 0.002 | 0.187 | 0.18 | 2.59 ± 0.22 µM | 0.242 µM | – | – | – | Fic/Fcyto (human hepatocytes [1]): 0.74; Cave,ss ([2]; 200 mg bid): 582 ng/mL; Cmax,ss ([2]; 200 mg bid): 1,400 ng/ml |
| CCN(CC)CCCC(C)Nc1ccnc2cc(Cl)ccc12 (stereo not shown) [Chloroquine] | – | – | – | – | – | – | – | – | – | – | – | – | – | – | IC50 (MATE2-K): 4 µM; IC50 (OATP1A2): […]; Ki (P-gp): […]; IC50 (CYP2D6): ~50 µM; IC50 (MATE1): 1.5 µM; IC50 (CYP3A4 [9]): 150 µM; IC50 (OCT1): 13 µM; IC50 (OCT2): ~100 µM |
| COc1ccc([C@@H]2Sc3ccccc3N(CCN(C)C)C(=O)[C@@H]2OC(C)=O)cc1 [Diltiazem] | – | – | – | – | – | – | – | 0.792 | 0.708 | – | – | – | – | – | Cmax,ss ([2]; 60 mg tid): 70 ng/mL; Cmax,ss ([2]; 240 mg qd): 166 ng/mL |
| Cc1cn(-c2cc(NC(=O)c3ccc(C)c(Nc4nccc(-c5cccnc5)n4)c3)cc(C(F)(F)F)c2)cn1 [Nilotinib] | 51 ± 9 | 0.008 ± 0.001 | – | 0.30 | 0.0002 | – | 0.022 ± 0.001 | 0.195 | 0.121 | 1.31 ± 0.3 µM | 0.128 µM | 1.29 ± 0.23 µM | 0.156 µM | medium (medium inhibitors causing a ≥2 but <5-fold increase) | – |
| C[C@@H](Oc1cc(-c2cnn(C3CCNCC3)c2)cnc1N)c1c(Cl)ccc(F)c1Cl [Crizotinib] | 70 ± 0.4 | 0.041 ± 0.005 | 0.817 h⁻¹ | 0.4 | 0.0006 ± 0.0001 | 75 ± 0.11 | 0.044 ± 0.005 | 0.505 | 0.118 | > 100 µM | 97.4 µM | 0.775 ± 0.13 µM | 0.091 µM | medium (medium inhibitors causing a ≥2 but <5-fold increase) | Substrate of other transporters in vitro (transporters): OATP1B1/3, 2B1; Ki (CYP3A [10]; microsomes, pH 7.4): 0.09 µM; Cave,ss ([2]; 100 mg qd): 45 ng/mL; Cave,ss ([2]; 250 mg bid): 129 ng/mL; Cave,ss ([2]; 300 mg bid): 169 ng/mL; Cmax,ss ([2]; 100 mg qd): 86 ng/mL; Cmax,ss ([2]; 250 mg bid): 327 ng/mL; Cmax,ss ([2]; 300 mg bid): 420 ng/mL |
| Cc1ccc(NC(=O)c2ccc(CN3CCN(C)CC3)cc2)cc1Nc1nccc(-c2cccnc2)n1 [Imatinib] | – | – | – | – | – | – | – | – | – | – | – | – | – | – | Cmax,ss ([2]; 400 mg qd): 2,596 ng/ml |
| Cc1ccc(Nc2nccc(N(C)c3ccc4c(C)n(C)nc4c3)n2)cc1S(N)(=O)=O [Pazopanib] | – | – | – | 0.80 | – | – | – | – | – | – | – | – | – | – | Substrate of other transporters in vitro (transporters): OATP1B1/3, OCT1; Cave,ss ([2]; 800 mg qd): 30,971 ng/ml |
| CC[C@H]1OC(=O)[C@H](C)C(=O)[C@H](C)[C@@H](O[C@@H]2O[C@H](C)C[C@H](N(C)C)[C@H]2O)[C@](C)(OC)C[C@@H](C)C(=O)[C@H](C)[C@H]2N(CCCCn3cnc(-c4cccnc4)c3)C(=O)O[C@]12C [Telithromycin] | 7.24 ± 0.8 | 0.27 ± 0.03 | 0.95 h⁻¹ | 0.92 | 0.0371 ± 0.0016 | 6.6 ± 0.6 | 0.25 ± 0.03 | 0.962 | 0.657 | 14.1 ± 3.5 µM | 6.77 µM | 1.49 ± 0.19 µM | 0.979 µM | strong (strong inhibitors of CYP3A, causing a ≥5-fold increase in the area under the concentration-time curve (AUC) of the probe drug) | Kp compared with Kpcyto (human hepatocytes [1]): comparable Kp and Kpcyto; Fic/Fcyto (human hepatocytes [1]): 0.92; Cave,ss ([2]; 800 mg qd): 425 ng/mL; Cmax,ss ([2]; 800 mg qd): 1,840 ng/ml |
| CC[C@H]1OC(=O)[C@H](C)[C@@H](O[C@H]2C[C@@](C)(OC)[C@@H](O)[C@H](C)O2)[C@H](C)[C@@H](O[C@@H]2O[C@H](C)C[C@H](N(C)C)[C@H]2O)[C@](C)(O)C[C@@H](C)/C(=N\OCOCCOC)[C@H](C)[C@@H](O)[C@]1(C)O [Roxithromycin] | 3.3 ± 0.75 | 0.08 ± 0.02 | 4.96 h⁻¹ | 0.86 | 0.0241 ± 0.0004 | 5.4 ± 0.3 | 0.13 ± 0.01 | 0.637 | 0.612 | 82.4 ± 44.9 µM | 26.2 µM | 31.4 ± 16.5 µM | 19.2 µM | weak (weak inhibitors causing a ≥1.25 but <2-fold increase) | B/P [12]: 0.70; Kp compared with Kpcyto (human hepatocytes [1]): significantly larger; Fic/Fcyto (human hepatocytes [1]): 1.61; Cave,ss ([2]; 300 mg qd): 5,413 ng/ml; Cmax,ss ([2]; 300 mg qd): 10,900 ng/ml |
| CC[C@H]1OC(=O)[C@H](C)[C@@H](O[C@H]2C[C@@](C)(OC)[C@@H](O)[C@H](C)O2)[C@H](C)[C@@H](O[C@@H]2O[C@H](C)C[C@H](N(C)C)[C@H]2O)[C@](C)(O)C[C@@H](C)CN(C)[C@H](C)[C@@H](O)[C@]1(C)O [Azithromycin] | – | – | – | – | – | – | – | 0.766 | 0.765 | – | – | – | – | – | – |
